# Measured values reported in ChEMBL document CHEMBL1201862, “PubChem BioAssay data set” (2004).
# The source made the active and inactive calls. Cut-off read from the data, not from the text of the source, for most assays here: actives have a measured EC50 and inactives only a lower limit.
# Assays:
# [1] = biological target: T1, Rac GTPase-activating protein 1 (Homo sapiens, UniProt Q9H0H5); experiment: blockers of MgcRacGAP-driven Rac1 GTP hydrolysis – biochemical, ADP Hunter fluorescence, primary and confirmatory, confirmation (AID 624330); format: functional
# T1 sequence (Q9H0H5 whole entry): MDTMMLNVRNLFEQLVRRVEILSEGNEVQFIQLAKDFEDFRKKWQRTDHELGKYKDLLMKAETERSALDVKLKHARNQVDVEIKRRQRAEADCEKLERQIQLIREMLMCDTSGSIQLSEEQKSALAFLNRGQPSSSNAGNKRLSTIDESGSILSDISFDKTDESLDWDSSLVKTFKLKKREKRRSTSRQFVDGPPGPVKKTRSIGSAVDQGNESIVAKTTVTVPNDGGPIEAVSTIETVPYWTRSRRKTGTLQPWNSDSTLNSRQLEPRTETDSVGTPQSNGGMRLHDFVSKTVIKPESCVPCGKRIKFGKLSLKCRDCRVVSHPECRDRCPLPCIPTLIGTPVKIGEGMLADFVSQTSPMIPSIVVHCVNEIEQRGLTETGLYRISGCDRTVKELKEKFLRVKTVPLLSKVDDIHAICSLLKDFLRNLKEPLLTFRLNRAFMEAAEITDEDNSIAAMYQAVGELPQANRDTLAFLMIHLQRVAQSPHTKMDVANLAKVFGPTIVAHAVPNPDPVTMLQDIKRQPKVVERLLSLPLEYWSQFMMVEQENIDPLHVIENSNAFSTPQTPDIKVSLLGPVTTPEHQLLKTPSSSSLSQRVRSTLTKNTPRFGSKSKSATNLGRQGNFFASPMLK
# [2] = Luminescence Cell-Based Dose Response HTS to Identify Activators of Luciferase Translation or Activity in H4 […] Cells. [Related pubchem assays: 1829 (Project Summary), 1814 (Primary HTS)]; format: functional
# H4 = experiment: Luminescence Cell-Based Dose Response HTS to Identify Activators of 5'UTR Stem-Loop Driven Prion Protein mRNA Translation in H4 Neuroglioblastoma Cells. [Related pubchem assays: 1829 (Project Summary), 1814 (Primary HTS)]; format: functional; conditions: Homo sapiens
# [3] = system: Streptococcus sp. 'group A'; experiment: Streptococcus pyogenes SK(-)GAS viability under kanamycin – luminescence, BacTiterGlo, confirmation, counter-screen for streptokinase expression inhibitor project, dose response (AID 1900); format: functional, organism-based
# Streptokinase A = biological target: T2, Streptokinase A (Streptococcus pyogenes serotype M1, UniProt P10520); experiment: viability-normalized secreted streptokinase activity reduction – plasminogen activation absorbance, OD405, dose response (AID 1914); format: functional, Streptococcus pyogenes M1 GAS;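 note: secreted streptokinase activity via plasminogen activation per viability signal from cell pellet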
# T2 sequence (P10520 whole entry): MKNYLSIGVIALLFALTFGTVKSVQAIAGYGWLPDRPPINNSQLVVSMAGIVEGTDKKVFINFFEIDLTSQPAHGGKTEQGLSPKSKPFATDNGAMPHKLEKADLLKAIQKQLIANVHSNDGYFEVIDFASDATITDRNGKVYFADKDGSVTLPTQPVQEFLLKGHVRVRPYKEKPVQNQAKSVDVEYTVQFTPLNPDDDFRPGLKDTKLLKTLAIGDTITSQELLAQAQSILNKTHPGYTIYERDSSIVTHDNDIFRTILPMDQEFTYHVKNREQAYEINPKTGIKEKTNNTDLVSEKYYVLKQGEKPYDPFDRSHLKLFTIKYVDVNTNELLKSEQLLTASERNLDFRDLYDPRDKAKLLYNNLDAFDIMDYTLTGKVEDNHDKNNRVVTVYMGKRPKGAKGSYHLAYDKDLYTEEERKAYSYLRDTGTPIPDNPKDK
# Streptococcus = experiment: GAS UMAA2166 growth inhibition – luminescence, BacTiterGlo, counter-screen for streptokinase expression inhibitor project, dose response (AID 1915); format: functional, organism-based;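 note: potency for reduction of bacterial viability or growth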
Structure (SMILES),IC50 [1],EC50 [3],EC50 (Streptokinase A),EC50 (Streptococcus),other results
CN1CCC(N(C)CC(=O)Nc2ccc3c(c2)OC(F)(F)O3)CC1,65.9 µM (active),,,,
CC1CC1C(=O)OCc1cc(=O)n2cc(Br)ccc2n1 (stereo not given),,,,,EC50 [2]: 0.102 µM (active); EC50 (H4): > 120 µM (not active)
COc1ccc(CN2CCN(Cc3ccc4ccccc4c3)CC2)cc1OC,76.4 µM (active),,,,
N#Cc1ccsc1NC(=O)COC(=O)c1ccc2ccccc2c1,,,,,EC50 (H4): 17.5 µM (active)
Nc1ccc(OCc2ccco2)cc1,49.8 µM (active),,,,
N=C(NOC(=O)c1cccc(F)c1)c1ccccc1,,,,,EC50 [2]: > 120 µM (not active)
O=C(Nc1ccccc1N1CCCC1)c1ccc2c(c1)OCO2,,> 150 µM (not active),> 150 µM (not active),> 150 µM (not active),
CC(=O)Nc1ccc(OC(=O)c2cc3ccccc3oc2=O)cc1,23.2 µM (active),,,,
COc1ccc(NC(=O)CN(C)C(=O)/C=C/c2cn(-c3ccccc3)nc2-c2ccc(F)cc2)cc1,,26.5 µM (active),53.8 µM (inconclusive),68.1 µM (active),
CC(CCN1CCN(CCO)CC1)c1ccccc1 (stereo not given),153 µM (active),,,,
COc1ccc(C(=O)NCC(=O)OCC(=O)N2N=C(c3ccc(Cl)cc3)CC2c2ccco2)cc1OC (stereo not given),,47 µM (active),> 150 µM (not active),> 150 µM (not active),
Cc1oc(-c2cc(Cl)cc(Cl)c2)cc1C(=O)NCCc1ccccc1,,17.3 µM (active),2.57 µM (active),48.3 µM (active),
COc1ccccc1-c1nnc(NC(=O)CCS(=O)(=O)c2ccccc2)o1,,> 150 µM (not active),> 150 µM (not active),> 150 µM (not active),
CC(C)(C)OC(=O)NCCCC[C@H](NC(=O)c1[nH]cnc1C(=O)Nc1ccc(Cl)cc1)C(=O)OC(C)(C)C,,3.64 µM (active),> 150 µM (not active),8.04 µM (active),
CC(C)Sc1cc(N2CCCC2)nc(-c2ccccc2)n1,,12.3 µM (active),11.2 µM (active),> 150 µM (not active),
O=C(NC(=S)N1CCCCC1c1cccnc1)c1ccc(F)cc1 (stereo not given),,> 150 µM (not active),> 150 µM (not active),> 150 µM (not active),
CSc1ccc(/C=C2\CCn3c2nc2cc(C(=O)O)ccc2c3=O)cc1,,23.1 µM (active),> 150 µM (not active),> 150 µM (not active),
CCOC(=O)c1[nH]c2ccccc2c1N=C(S)Nc1ccccc1C,65.9 µM (active),,,,
CCN1C(=O)c2ccc(C(=O)Nc3ccc(O)cc3C)cc2C1=O,108 µM (active),,,,
CC(Oc1ccccc1)C(=O)NC1=NCCS1 (stereo not given),,,,,EC50 [2]: 94.2 µM (active); EC50 (H4): 18.9 µM (active)
NS(=O)(=O)c1ccc(CCNCC(=O)N2CCC(Cc3ccccc3)CC2)cc1,283 µM (active),,,,
COc1ccc(NC(=O)c2ccc(NC(=O)CN3CCN(c4ccc(O)cc4)CC3)cc2)cc1,63 µM (active),,,,
N#CCCN1CCN(CCC#N)c2ccccc21,16.1 µM (active),,,,
CC(C)c1ccc(/C=N/N2CCCCC2)cc1,220 µM (active),,,,
COc1cc(/C=N/NC(=O)c2nnn(-c3nonc3N)c2C(C)C)ccc1O,31 µM (active),,,,
CC(C)c1ccc(/C=N/n2c(S)nnc2-c2ccccc2)cc1,,18.3 µM (active),> 150 µM (not active),> 150 µM (not active),
COc1ccc2c(c1)CC/C2=N\OC(=O)c1cccc(C)c1,,,,,EC50 [2]: 0.105 µM (active)
COc1c(-c2ccc(O)c(O)c2)oc2cc(O)cc(O)c2c1=O [3-O-METHYLQUERCETIN],30.3 µM (active),,,,
